Laboratory results as given in US5462868A (priority 1991, dated 1995).
Like-named read-outs stand apart in the source and are kept apart here.

What was measured:
cocaine esterase [1] = type: biochemical, Pseudomonas maltophilia MB11L; settings: 1 mM inhibitor; for % ACTIVITY RELATIVE TO CONTROL: preincubated 30° C. 10 min, 2 mM cocaine, 0.9 U/ml=100% activity; for inhibition of cocaine esterase activity (in words): 30° C., 10 min
Description: (§1) The reaction was stopped by the addition of 10 μl of concentrated phosphoric acid and protein pelleted at 13,000 rpm in a minifuge. The amount of benzoic acid produced was determined by HPLC analysis of 50 μl of the supernatant and comparison to standard samples (0-1 mM) treated identically. Standard curves of peak height plotted against benzoic acid concentration were linear over the range 0-1 mM. Controls containing no enzyme solution were run to allow for background hydrolysis. An assay was considered invalid if no cocaine remained at the end of the assay (seen by HPLC). One unit of esterase activity is defined as the amount of enzyme required to produce 1 μmol of benzoic acid in 1 min at 30° C.
The possible inhibitors tested were phenylmethylsulphonyl fluoride (PMSF), eserine, para-hydroxymercuribenzoate (pHMB), benzoate and ecgonine methyl ester.

cocaine esterase [2] = type: biochemical, Pseudomonas maltophilia MB11L; settings: for Km: read-out: Apparent Km
Description: as §1
Reactions were stopped using concentrated phosphoric acid (10 μl) to precipitate protein, which was removed by centrifugation at 13,000 rpm in a Microfuge. Rates of substrate hydrolysis were calculated from HPLC analyses of the incubations. Non-enzymic rates of hydrolysis were calculated from control samples containing no enzyme, and the enzyme assays corrected accordingly. Standard samples of the relevant free acids were used to calibrate each assay. […] Lineweaver-Burke and Eadie-Hofstee plots were used to obtain these values (see Fersht, 1985, Enzyme Structure and Mechanism, 2nd Edition, Publishers: W. H. Freeman & Co., Oxford for methods).

[3] = Screen of esterases for activity against cocaine (HPLC); type: biochemical; settings: 2 mM cocaine in 50 mM buffer of pH suited for maximum enzyme activity
[4] = Specific activity of esterases against their usual substrate; type: biochemical; settings: usual substrate of each enzyme
Description: Control incubations containing no enzyme were performed under each set of conditions to allow accurate assaying of enzyme activity.

[5] = purified cocaine esterase, 50 mM bis-tris-propane buffer pH 8.0, 30° C., 10 min, mean values

O=C(O)c1ccccc1 [Benzoate, benzoate]
% ACTIVITY RELATIVE TO CONTROL (cocaine esterase [1]): 92%

COC(=O)[C@H]1[C@@H](OC(=O)c2ccccc2)C[C@@H]2CC[C@H]1N2C [Cocaine]
Apparent Vmax (cocaine esterase [2]; [5]): 29.5 U/mg
Km (cocaine esterase [2]; [5]): 360 µM

COC(=O)[C@@H]1[C@H]2CC[C@@H](C[C@@H]1O)N2C [Ecgonine methyl ester, ecgonine methyl ester]
% ACTIVITY RELATIVE TO CONTROL (cocaine esterase [1]): 82%

CNC(=O)Oc1ccc2c(c1)[C@]1(C)CCN(C)[C@@H]1N2C [Eserine, eserine]
inhibition of cocaine esterase activity (in words) (cocaine esterase [1]): relatively ineffective
% ACTIVITY RELATIVE TO CONTROL (cocaine esterase [1]): 95%

CCOC(=O)c1ccccc1O [Ethyl 2-hydroxycenzoate]
Km (cocaine esterase [2]; [5]): 1750 µM

CCOC(=O)c1cccc(O)c1 [Ethyl 3-hydroxybenzoate]
Apparent Km (cocaine esterase [2]; [5]): No activity
Apparent Vmax (cocaine esterase [2]; [5]): No activity

CCOC(=O)c1ccc(O)cc1 [Ethyl 4-hydroxybenzoate]
Apparent Km (cocaine esterase [2]; [5]): No activity
Apparent Vmax (cocaine esterase [2]; [5]): No activity

CCOC(=O)c1ccccc1 [Ethyl benzoate]
Apparent Vmax (cocaine esterase [2]; pH 8): 65.0 U/mg
Km (cocaine esterase [2]; pH 8): 1890 µM

O=S(=O)(F)Cc1ccccc1 [PMSF, phenylmethylsulphonyl fluoride]
inhibition of cocaine esterase activity (in words) (cocaine esterase [1]): total inactivation
% ACTIVITY RELATIVE TO CONTROL (cocaine esterase [1]): 0%

O=C(O)c1cc[c]([Hg][OH])cc1 [pHMB, para-hydroxymercuribenzoate]
inhibition of cocaine esterase activity (in words) (cocaine esterase [1]): relatively ineffective
% ACTIVITY RELATIVE TO CONTROL (cocaine esterase [1]): 86%

Electric eel acetyl-cholinesterase: commercially available esterase enzyme
SPECIFIC ACTIVITY (U/mg) AGAINST COCAINE [3]: 0 U/mg
SPECIFIC ACTIVITY (U/mg) AGAINST USUAL SUBSTRATE [4]: 320 U/mg

Horse serum butyryl-cholinesterase: commercially available esterase enzyme
SPECIFIC ACTIVITY (U/mg) AGAINST COCAINE [3]: 0.098 U/mg
SPECIFIC ACTIVITY (U/mg) AGAINST USUAL SUBSTRATE [4]: 14 U/mg

B1: Porcine pancreatic lipase: commercially available esterase enzyme (protein, UniProt P00591 1-450, looked up)
Pancreatic triacylglycerol …: SEVCFPRLGCFSDDAPWAGIVQRPLKILPWSPKDVDTRFLLYTNQNQNNYQELVADPSTITNSNFRMDRKTRFIIHGFIDKGEEDWLSNICKNLFKVESVNCICVDWKGGSRTGYTQASQNIRIVGAEVAYFVEVLKSSLGYSPSNVHVIGHSLGSHAAGEAGRRTNGTIERITGLDPAEPCFQGTPELVRLDPSDAKFVDVIHTDAAPIIPNLGFGMSQTVGHLDFFPNGGKQMPGCQKNILSQIVDIDGIWEGTRDFVACNHLRSYKYYADSILNPDGFAGFPCDSYNVFTANKCFPCPSEGCPQMGHYADRFPGKTNGVSQVFYLNTGDASNFARWRYKVSVTLSGKKVTGHILVSLFGNEGNSRQYEIYKGTLQPDNTHSDEFDSDVEVGDLQKVKFIWYNNNVINPTLPRVGASKITVERNDGKVYDFCSQETVREEVLLTLNPC
SPECIFIC ACTIVITY (U/mg) AGAINST COCAINE [3]: 0 U/mg
SPECIFIC ACTIVITY (U/mg) AGAINST USUAL SUBSTRATE [4]: 50 U/mg
